Results published in patent US20180353445A1, “METHODS AND COMPOSITIONS RELATING TO PROTEASOME INHIBITOR RESISTANCE” (Whitehead Institute for Biomedical Research, priority 2017, published 2018).

Tests used:
Format in all cases: cell-based, human
T47D cells [1] = experiment: Cell viability, T47D cells with doxycycline-inducible PSMD2 shRNA (KD) vs control
Description: FIGS. 37A-37E: Subunit suppression results in highly specific drug sensitivity alteration. Schematic representation of the drug screen setup. (FIG. 37A) 147D cells harboring a doxycycline-inducible PSMD2 shRNA were grown in the presence or absence of doxycycline for 48 hr. Cells were then collected, washed, and plated in the absence of doxycycline for 24 hr prior to exposure different compounds. Relative cell numbers were measured 3 days later. […] (FIGS. 37C-37E) The relative viability of the PSMD2 knockdown (KD) versus the control was calculated for replica experiments and the log2 of the ratio is plotted for 349 compounds from the Selleck anti-cancer L3000 drug library that were tested in 4 concentrations (FIG. 37C), the Selleck natural product library (NPC) comprising 502 compounds in 5 doses (FIG. 37D), and the NIH bioactive compound library that includes 731 compounds in 4 doses (FIG. 37E). Specific compounds are annotated.
The effect of transient PSMD2 reduction on growth of T47D cells in the presence of different proteasome inhibitors (bortezomib, MLN9708, carfilzomib, oprozornib) was tested. T47D cells harboring a doxycycline inducible control shRNA (GFP) or a doxycycline-inducible PSMD2 shRNA (TurhoRFP) were incubated with doxycycline for 3 days. Cells were then split and grown in the absence of Dox and proteasome inhibitors were then added at various concentrations. Cells were maintained in culture and then counted.
For the generation of the T47D Tet-inducible PSMD2 knockdown cell line- the TRIPZ vector with an inducible shRNA targeting PSMD2 was purchased from Dhannacon (clone V3THS_403760). It was introduced to the T47D cells according to manufactures protocol and cells were selected with puromycin 1 μg/ml for one week. The cells were exposed to doxycycline for 24 hours and cells were FACS sorted for the top 10% of most RFP expressing cells (highest expression of shRNA). The cells were further cultured in the absence of doxycycline and PSMD2 knockdown was induced as specified in the relevant Examples. The TRIPZ control GFP vector was created by removing the turboRFP from the TRIPZ control vector by digestion with Agel and ClaI and replacing it with GFP amplified with primers flanking with Agel and Clal restriction sites.
Cell Viability Assay—Relative cell growth and survival were measured in 96-well microplate format in the shRNA experiments and in 384 well format in the drug toxicity assays, by using the fluorescent detection of resazurin dye reduction as an endpoint (544 nm excitation and 590 run emission). 2,500 cells in 96 wells format or 1,000 cells in 384 well format were plated 24 hours before compound exposure (for 72 hours or indicated time). Each analysis was performed at least with three replicas.

T47D cells [2] = experiment: The glucose/galactose drug screen; conditions: 10 mM Glucose or Galactose, Selleck anti cancer and natural product libraries
Description: We conducted a second set of drug screens to identify unique sensitivities conferred by the Hi-OXPHOS state using parental T47D breast cancer cells (without 19S subunit suppression). For this screen, we used the NPC and CDL libraries as they contained the greatest number of hits in the Lo19S screen. We tested over 800 compounds at multiple concentrations and measured their effects on relative cell growth/viability when cells were grown under aerobic glycolysis conditions (glucose-supplemented medium) or forced mitochondrial respiration conditions (galactose-supplemented medium).
The glucose/galactose drug screen—T47D cells growing in regular media were collected counted and after centrifugation cells were re-suspended in RPM1 media without glucose containing 10% dialyzed serum with the addition of either 10 mM glucose or 10 mM galactose, Cells were then plated at 1000 cells/well in 384-well opaque, white assay plates (Coming, N.Y.), 50 uL per well, and incubated overnight at 37°C./5% CO2. Application of the drug libraries and cell viability was executed as described above for the Lo19S drug screen.

[3] = system: T47D cells harboring a doxycycline inducible PSMD2 KD shRNA construct; experiment: Viability of PSMD2 knockdown versus control T47D cells, dose response and combinations (CellTiter-Glo); conditions: T47D, transient PSMD2 suppression versus control
Description: Cell viability was measured by CellTiter-Glot Luminescent Cell Viability Assay 72 hours after addition of the compounds to cells.
Cell viability was measured by CellTiter-Glo® Luminescent Cell Viability Assay 72 hours after addition of the compounds were added to cells.
Cell viability was measured by CellTiter-Glolk Luminescent Cell Viability Assay 72 hours after addition of the compounds to cells.
To directly test whether altered cellular metabolism can modulate the sensitivity of cancer cells to proteasome inhibitors, we engineered the breast cancer cell line T47D into Lo19S and increased OXPHOS states. Initially, we reconstituted the Lo19S state by transient suppression of the PSMD2 subunit of the 19S complex using an inducible shRNA.
To induce a high OXPHOS (Hi-OXPHOS) state, we changed the carbon source in the cell culture media from glucose to galactose, which is poorly fermentable. This method has been previously shown to drive glutamine utilization by mitochondria and to thus increase mitochondrial respiration (Gohil et al., 2010). […] We reasoned that the Hi-OXPHOS signature we identified in Lo19S patient tumors may cooperate with the Lo19S state to further promote the ability of the cells to withstand proteotoxic stress.
Cell viability—where indicated relative cell number following different drug treatment was conducted by plating cells at 1000 cells/well in 384 well plates. Indicated concentrations of compounds were added 24 hour after plating at least in triplicate for each condition. Viability was measured 72 hours after drug addition using cell titer-glo (Promega) according to manufactures protocol. Same protocol was applied for the experiments conducted for the Lo19S T47D, MCF7 and T47D in the context of altered carbon source only the cells were plated at 1000 cells/well in RPMI media (without glucose and with dialyzed serum) containing either 10 mM Glucose or lOmM galactose.

[4] = system: IMR32 (reduced PSMD5) and Kelly neuroblastoma cells; experiment: Viability of IMR32 versus Kelly neuroblastoma cells (CellTiter-Glo); conditions: ABT-263 versus more specific BCL2, BCL-XL and MCL-1 inhibitors
Description: To determine whether these compounds also differentially affect cells with reduced expression of PSDMS, IMR32 and Kelly cells were each cultured in the presence of ABT-263, disulfiram, or elesclomol across a range of concentrations. Cell viability was measured by CellTiter-Glo® Luminescent Cell Viability Assay 72 hours after addition of the compound to cells. The fold viability relative to culture in the absence of the compound was determined for each cell line. […] In the experiment shown in FIG. 24, the lowest lower concentration of ABT-263 and disulfiram tested was 1 uM.
ABT-263 targets several members of the BCL2 family, including BCL2 and BCL-XL.

[5] = system: T47D cells with doxycycline inducible PSMD2 KD (Lo19S) versus control cells; experiment: Lo19S T47D drug screen (PSMD2 KD versus control cells, CellTiter-Glo); conditions: for viability of PSMD2 KD versus control cells: Selleck natural product library (NPC) and NIH bioactive compound library, selectivity less than for the anti-cancer library hits; for viability of PSMD2 KD versus control cells (log2 (shPSMD2/Control)): T47D, Lo19S state by dox-inducible PSMD2 shRNA, compound library screen, 72 h, CellTiter-Glo
Description: The effect of each drug on viability of cells was calculated by averaging the duplicate experiments. The data is plotted in FIG. 16 as the log2 of the ratio of viability of PSMD2 KD versus control cells (log2 (shPSMD2/Control)). […] The Selleck natural product library (NPC) comprising 502 compounds in 5 doses and the. NIH bioactive compound library that includes 731 compounds in 4 doses were also screened using the same system.
A deeper understanding of the proteasome inhibitor resistant state could yield insights into the molecular mechanisms activated by cells to cope with proteotoxic stress and elucidate new therapeutic strategies for cancer. With these goals in mind, we screened mechanistically diverse small molecule libraries to identify compound sensitivities altered by the Lo19S and Hi-OXPHOS states. An initial screen was conducted in the isogenic T47D model with transient induction of the Lo19S state as described above, We evaluated >4300 mechanistically well-defined compounds within 4 libraries. The compounds included approved cancer drugs (Selleck anti-cancer library: CDL), common natural products (Natural product library: NPC) and an ^-NIH bioactives library (NIH). Each of these compounds was tested at ≥4 concentrations. (Table S5, data not shown), An additional 2866 compounds from the Boston University's Chemical Methodology and Library Development (CMLD-BU) small molecule collection was screened at a single dose (BULL, see Table S5).
Generation of the Lo19S T47D cell line—For the generation of the T47D Tet-inducible PSMD2 knockdown cell line—the TRIPZ vector with an inducible shRNA targeting PSMD2 was purchased from Dharmacon (clone V3THS_403760). It was introduced to the T47D cells according to manufactures protocol and cells were selected with puromycin […] for one week. The cells were exposed to doxycycline for 24 hours and cells were FACS sorted for the top 10% of most RFP expressing cells (highest expression of shRNA). The cells were further cultured in the absence of doxycycline and PSMD2 knockdown was induced as specified in the text.
After 48 hours the cells were collected counted and plated (in the absence of dox) at 1000 cells/well in 384-well opaque, white assay plates (Coming, NY), 50 uL per well, and incubated overnight at 37° C./5% CO2. Compound stocks from the Cancer drug library containing 349 bioactive compounds that were arrayed in dose 10 nM, 100 nM, 1 uM, 10 uM (Selleck anti-cancer compound library L3000), the natural products library containing 502 compounds that were utilized in 5 doses (dilution of 1:1000 of 2ug/ml, 0.2 ug/ml, 0.002/ug/ml, 0.0002 ug/ml), the NIH bioactive library including 731 drugs in dose of 10 nM, 100 nM, 1 uM, 10 uM and the Boston University's CMLD (Chemical Methodology and Library Development) compound deck containing 2866 compounds in one dose (10 uM), including novel chemotypes that uniquely probe three-dimensional space by employing stereochemical and positional variation within the molecular framework as diversity elements in library design. 50 nl of compounds were pin-transferred (V&P Scientific, CA, pin tool mounted onto Tecan Freedom Evo 150 MCA96 head, Tecan, Calif.) into duplicate assay plates and incubated for 72 h. The DMSO content was 0.1% within each well, Per plate, there are 32 wells of DMSO vehicle control and 32 wells of positive control compounds. After three days of incubation, 10 uL of CellTiter-Glo (Promega, Wis.) was added to each well, incubated for 10 minutes and the luminescence output was read on the M1000 Infinite Pro plate reader (Tecan, Calif.).

T47D cells [6] = experiment: Drug library screen (Selleck anti-cancer, NPC, NIH bioactive), PSMD2 KD vs control T47D cells; conditions: Selleck anti-cancer compound library screen
Description: Schematic representation of the drug screen setup. (FIG. 37A) 147D cells harboring a doxycycline-inducible PSMD2 shRNA were grown in the presence or absence of doxycycline for 48 hr. Cells were then collected, washed, and plated in the absence of doxycycline for 24 hr prior to exposure different compounds. Relative cell numbers were measured 3 days later.
The relative viability of the Lo19S versus control cells was calculated for replica experiments and the log2 of the ratio is plotted. […] The relative viability of the respiring cells (Hi-OXPHOS) (gal) versus the control cells (glu) was calculated for replica experiments and the log2 of the ratio is plotted.
After 48 hours the cells were collected, counted, and plated at 1000 cells/well in 384 well plates in duplicates for each cell line. Compounds from the Selleck Chemicals anti-cancer compound library (349 drugs in 4 concentrations; […]) were pinned the next day and viability was measured after 72 hours by the reduction of Resazurin (Ex=530 run, Em=590nin). (See FIG. 37A for schematic of screen.)

## CC(C)C[C@H](NC(=O)[C@H](CCc1ccccc1)NC(=O)CN1CCOCC1)C(=O)N[C@@H](Cc1ccccc1)C(=O)N[C@@H](CC(C)C)C(=O)[C@@]1(C)CO1 [carfilzomib]
T47D cells [1]; T47D, transient PSMD2 reduction
  resistance of cells harboring PSMD2 shRNA vs parental line (EC50): EC50 values increased considerably

## C=C(C)[C@H]1Cc2c(ccc3c2O[C@@H]2COc4cc(OC)c(OC)cc4[C@@H]2C3=O)O1 [Rotenone]
T47D cells [2]
  relative viability change of cells grown in glucose versus galactose: increased sensitivity

## Nc1ccc2ncnc(NCCc3ccc(Oc4ccccc4)cc3)c2c1 [QNZ]
T47D cells [2]
  relative viability change of cells grown in glucose versus galactose: increased sensitivity

## CC(C)C[C@H](NC(=O)CNC(=O)c1cc(Cl)ccc1Cl)B(O)O [ixazomib]
T47D cells [1]; T47D cells, PSMD2 KD vs control
  fold increase in EC50 induced by transient PSMD2 knockdown (KD): 50-100 fold
[3]
  increase of proliferation inhibition EC50 on inducing the Lo19S state: ~4 fold

## CC[C@@H]1/C=C/C=C/C[C@H](C)[C@H](O)[C@](C)(O)C(=O)[C@H](C)[C@@H](O)[C@H](C)C(=O)[C@H](C)[C@@H](O)[C@H](C)/C=C/C(=O)O[C@H]2[C@@H](C)[C@@H](CC1)O[C@@]1(CC[C@@H](C)[C@@H](C[C@H](C)O)O1)[C@@H]2C [Oligomycin A]
T47D cells [2]
  relative viability change of cells grown in glucose versus galactose: increased sensitivity

## Cc1nn(C)c(COc2ccc(N3CCN(S(=O)(=O)N(C)C)CC3)cc2)c1-c1cccc2c(CCCOc3cccc4ccccc34)c(C(=O)O)n(CCN3CCOCC3)c12 [A-1210477]
[4]
  preferential sensitivity of IMR32 versus Kelly cells, compared among BCL2 family inhibitors: much greater for ABT-263

## CN1C(=O)[C@]23CC4=CC=C[C@H](O)[C@H]4N2C(=O)[C@@]1(CO)SS3 [Gliotoxin]
[5]
  viability of PSMD2 KD versus control cells: selectively toxic to cells with PSMD2 knockdown

## COc1ccc(-c2ccc3c(N4CCOCC4)nc(N4C[C@@H](C)O[C@@H](C)C4)nc3n2)cc1CO [Ku-0063794]
T47D cells [6]
  growth inhibition of T47D cells with reduced level of PSMD2 vs control T47D cells: selectively inhibit growth
[5]
  viability of PSMD2 KD versus control cells (log2 (shPSMD2/Control)): selectively reduce the viability of PSMD2 KD cells versus control cells

## CCCCc1oc2ccccc2c1C(=O)c1cc(I)c(OCCN(CC)CC)c(I)c1 [cordarone]
[5]
  viability of PSMD2 KD versus control cells: selectively toxic to cells with PSMD2 knockdown

## COc1cc2c(cc1OC)[C@@H]1C(=O)c3ccc4c(c3O[C@@H]1CO2)C=CC(C)(C)O4 [Degeulin]
T47D cells [2]
  relative viability change of cells grown in glucose versus galactose: increased sensitivity

## Nc1nc(Cl)nc2c1ncn2[C@H]1C[C@H](O)[C@@H](CO)O1 [cladribine, 2-chlorodeoxyadenosine]
T47D cells [6]
  growth inhibition of T47D cells with reduced level of PSMD2 vs control T47D cells: selectively inhibit growth
[5]
  viability of PSMD2 KD versus control cells (log2 (shPSMD2/Control)): selectively reduce the viability of PSMD2 KD cells versus control cells
